Earlier results in article PMC12287436 (Scientific Reports, 2025).
Where a name gives a salt, the structure may show the parent alone.

Conditions: rabbits; 2% instillation dose

Retinal concentration: 2.8 µM
Compound: CCN[C@H]1C[C@H](C)S(=O)(=O)c2sc(S(N)(=O)=O)cc21 [dorzolamide hydrochloride]
